Measured values reported in EP0273272B1, “Pharmaceutical compositions containing 17-benzyl sparteine derivatives with a positive inotropic effect” (Kali-Chemie Pharma GmbH, priority 1986, dated 1988).

Assays:
[1] = test system: linken Herzvorhofes; test: Functional refractory period of the isolated left atrium, paired electrical stimulation (antiarrhythmic effect); parameters: species or system Meerschweinchen; details: 0.3 h, concentration prolonging the functional refractory period to 125 % 18 min after application, guinea pig, read-out: Effektive Konzentration zur Erreichung von FRP 125 %
Description: Der Nachweis der antiarrhythmischen Wirkung der Wirksubstanzen erfolgte experimentell durch Bestimmung der funktionellen Refraktärzeit des linken Herzvorhofes von weiblichen Albino Pirbright-white Meerschweinchen der Gewichtsklasse 300 bis 400 g mit Hilfe der gepaarten elektrischen Stimulation in Anlehnung an die Methode von Govier (W.C. Govier, J. Pharmacol. Exp. Ther. 148 (1) (1965), 100 bis 105). In der nachfolgenden Tabelle 3 ist als FRP 125 % diejenige Konzentration in µmol/l angegeben, bei der es 18 min nach Substanzapplikation zu einer Verlängerung der funktionellen Refraktärzeit auf 125 % kommt.

[2] = test system: spontan schlagenden, isolierten rechten Vorhöfen; test: Heart rate of spontaneously beating isolated right atria; parameters: species or system Meerschweinchen; details: 20 min, concentration lowering the rate to 75 % of the initial value 20 min after application, guinea pig, read-out: Effektive Konzentration zur Erreichung von FRQ 75 %
Procedure: Der direkte Einfluß der Wirksubstanz auf die Herzfrequenz (FRQ) wurde an spontan schlagenden, isolierten rechten Vorhöfen von weiblichen Albino Pirbright-white Meerschweinchen der Gewichtsklasse von 300 bis 400 g geprüft. In Tabelle 3 ist als FRQ 75 % diejenige Konzentration in µmol/l angegeben, bei der es 20 min nach der Substanzgabe zu einer Abnahme der Frequenz auf 75 % des Ausgangwertes kommt. Tabelle 3

[3] = test system: Mäusen; test: Determination of the minimal toxic dose in mice; format: in vivo
Procedure: Männlichen Mäusen von 20-25 g Gewicht werden p.o. Maximaldosen von 300 mg/kg der Testsubstanz verabreicht. Die Tiere werden 3 Stunden lang sorgfältig auf Toxizitätssymptome beobachtet. über einen Zeitraum von 24 Stunden nach der Applikation werden zusätzlich alle Symptome und Todesfälle registriert. Begleitsymptome werden ebenfalls beobachtet und registriert. Wenn Tod oder starke toxische Symptome beobachtet werden, werden weiteren Mäusen zunehmend geringere Dosen verabreicht, bis keine toxischen Symptome mehr auftreten. Die niedrigste Dosis, welche Tod oder starke toxische Symptome hervorruft, wird als minimale toxische Dosis in der nachfolgenden Tabelle 2 angegeben. Tabelle 2

[4] = test system: narkotisierten Ratten; test: Myocardial oxygen consumption (double product, method of Neill) in anaesthetised rats; format: in vivo; details: used as dihydrochloride; for DP: double product (systolic pressure x heart rate); for FRQ: heart rate; for P₅: systolic blood pressure
Description: Die Wirkung der Substanzen auf Blutdruck und Herzfrequenz bei i.v.-Dauerinfusion in narkotisierten Ratten wird nach der Methode von Buschmann et al. (J. Cardiovascular Pharmacol. 2 777-781 (1980)) bestimmt.
Männliche Wistar-Ratten (330-370 g Körpergewicht) werden durch i.p.-Applikation von 1,25 g/kg Urethan narkotisiert und tracheotomiert. Nach einer Äquilibrierungsphase von 10 Minuten wird mit den Messungen begonnen. In einer Vorlaufphase von 5 Minuten werden die Ausgangswerte gemessen. Anschließend werden die Prüfsubstanzen gelöst in isotonischer Natriumschloridlösung (gegebenenfalls mit Zusatz eines Lösungsvermittlers) als Dauerinfusion i.v. appliziert, beginnend mit einer Dosis vom 0,01 µmol/kg/min. Die Dosis wird alle 10 Minuten ohne Erhöhung des Infusionsvolumens auf das 10-fache gesteigert. Eine Kontrollgruppe erhält nur wirkstofffreie Lösung appliziert.
In dem gleichen Versuchsmodell wurde auch der Einfluß der Wirksubstanzen auf den myokardialen Sauerstoffverbrauch an narkotisierten Ratten untersucht und anhand der Methode von Neill (Neill, W.Z., H.H. Levine, R.J. Wagman, R. Gorlin, Circulation Research 12 (1963), 163) berechnet. Dazu wird das Produkt aus systolischem Blutdruck und Herzfrequenz (= Doppelprodukt mm Hg x min⁻¹ x 0,01) berechnet. Wie aus der nachstehenden Tabelle 1A ersichtlich ist, reduzieren die Wirksubstanzen dieses Doppelprodukt und führen damit zu einer Sauerstoffeinsparung am Herzen. Tabelle 1A

[5] = mouse, in vivo, po, 300 mg/kg, 1440 min
[6] = anaesthetised rats, 6,6 µmol/kg i.v.
[7] = anaesthetised rats, 2,6 µmol/kg i.v.

SMILES | EC (FRP 125%) [1] | EC (FRQ 75%) [2] | Minimale toxische Dosis [3, 5] | other results
COc1cccc(CC2C3CC(CN4CCCCC34)C3CCCCN32)c1OC (centres unmarked) [Beispiel 6, 17-(2,3-Dimethoxybenzyl)-spartein] | 3.39 µM | 4.85 µM | >300 mg/kg | 
c1ccc(CC2C3CC(CN4CCCCC34)C3CCCCN32)cc1 (centres unmarked) [Beispiel 500, 17-Benzylspartein] | 3.52 µM | 1.46 µM |  | Minimale toxische Dosis ([3]; p.o., male mice, maximal dose 300 mg/kg, observed 24 h, lowest dose causing death or strong toxic symptoms): >300 mg/kg
COc1ccccc1CC1C2CC(CN3CCCCC23)C2CCCCN21 (centres unmarked) [Beispiel 501] | 3.71 µM | 4.69 µM | 300 mg/kg | 
COc1cccc(CC2C3CC(CN4CCCCC34)C3CCCCN32)c1 (centres unmarked) [Beispiel 502, 17-(3-Methoxybenzyl)-spartein] | 6.24 µM | 2.06 µM | 300 mg/kg | Änderung DP ([4]; change of double product versus pre-dose values, 6,6 µmol/kg i.v.): -29 Prozent; DP [4, 6]: 312 mm Hg/ min x 100; FRQ [4, 6]: 254 min⁻¹; P₅ [4, 6]: 124 mm Hg
Clc1ccccc1CC1C2CC(CN3CCCCC23)C2CCCCN21 (centres unmarked) [Beispiel 505] | 2.17 µM | 0.99 µM | 300 mg/kg | Änderung DP ([4]; change of double product versus pre-dose values, 2,6 µmol/kg i.v.): -26 Prozent; DP [4, 7]: 376 mm Hg/ min x 100; FRQ [4, 7]: 306 min⁻¹; P₅ [4, 7]: 121 mm Hg
Fc1ccccc1CC1C2CC(CN3CCCCC23)C2CCCCN21 (centres unmarked) [Beispiel 509] | 2.83 µM | 4.09 µM | >300 mg/kg | 
Fc1ccc(CC2C3CC(CN4CCCCC34)C3CCCCN32)cc1 (centres unmarked) [Beispiel 511] | 2.47 µM | 5.12 µM | >300 mg/kg | 
Cc1cccc(CC2C3CC(CN4CCCCC34)C3CCCCN32)c1 (centres unmarked) [Beispiel 518] | 2.58 µM | 3.13 µM | >300 mg/kg | 
Cc1ccc(CC2C3CC(CN4CCCCC34)C3CCCCN32)cc1 (centres unmarked) [Beispiel 519] | 3.24 µM | 1.9 µM | 300 mg/kg | 
Cc1cccc(CC2C3CC(CN4CCCCC34)C3CCCCN32)c1F (centres unmarked) [Beispiel 523] | 2.69 µM | 0.95 µM | 300 mg/kg | 
